Assay results: patent publication US9115170B2, “Methods and compositions related to internalizing RGD peptides” (Sanford-Burnham Medical Research Institute, priority 2008, dated 2015)

What was measured:
PPC1 cells [1] = experiment: In vitro phage binding assay; format: cell-based, human; settings: for effect of trypsin treatment on binding to PPC1 cells: treatment with trypsin; for phage binding to cells: PPC1 cells, 1 hour at 4° C., phage-displayed peptide
Procedure: (§1) PPC1 cells were incubated with the phage for 1 hour at 4° C. (A) or 37° C. (B). Phage that bound to the cell surface (A) or those that had internalized into the cells (B) were rescued for titration.
(§2) FIGS. 8A and 8B show the binding (A) and internalization (B) of phage displaying CG7C (control phage), iRGD1, and iRGD1 mutants that carry an alanine substitution for each amino acid (underlined) (SEQ ID NOs:1 and 304-310). PPC1 cells were incubated with the phage for 1 hour at 4° C. (A) or 37° C. (B). Phage that bound to the cell surface (A) or those that internalized into the cells were rescued for titration.
(§3) PPC1 cells were incubated with the phage for 1 hour at 4° C. (A) or 37° C. (B). Phage that bound to the cell surface (A) or those that had internalized into the cells were rescued for titration.
(§4) Suspended cells (10^6 cells in DMEM containing 1% BSA) were incubated with 10^8 pfu/ml of T7 phage for 1 hr at 4° C. The cells were washed 4 times with the binding buffer, lysed with lysogeny broth containing 1% NP-40, and titrated. Phage internalization assays used the same procedure, except that the cells were incubated with phage at 37° C., and that an acidic buffer (500 mM sodium chloride, 0.1 M glycine, 1% BSA, pH 2.5) was substituted for the binding buffer in the second wash. Inhibitors of binding and internalization were added 20 min prior to incubation with phage. Non-infectious phage were prepared by treating phage with UV for 8 min in DMEM containing 1% BSA. The resulting UV-inactivated phage particles expressing about 200 peptides per particle were used as multivalent inhibitors. Free synthetic peptides, mouse antibodies against human α1, α2, αvβ3, αvβ5, α5β1, α4, or αv integrins and integrin subunits (Chemicon), goat anti-rat neuropilin-1 (R&D Systems, Minneapolis, Minn.), with mouse and a goat IgG isotype controls (Abcam) were also tested.

[2] = test system: orthotopic 22Rv-1 human prostate cancer xenografts; experiment: Confocal microscopy of tumors after injection of peptides, phage and micelles; format: in vivo, mice; settings: free peptides 2 hrs, phage 15 min, micelles 3 hrs circulation
Procedure: (§5) Statistical analysis was performed with Student's t-test.

αv integrins = settings: Koivunen et al. 1993, 1995; cited from earlier work
PPC1 cells [3] = experiment: In vitro phage internalization assay; format: cell-based, human; settings: for phage internalization into cells: 1 hour at 37° C., acid wash, phage-displayed peptide
Procedure: as §1, §2, §3
To assess the internalization, the phage that bound to the cell surface were removed by washing the cells with acid buffer before phage titration. […] Statistical analysis was performed with Student's t-test. n=3, error bars represent s.d.
Mice were maintained in accordance with institutional guidelines and the animal experiments were approved by the Animal Research Committees at University of California, Santa Barbara and San Francisco. We used transgenic tumor mice (Bardeesy and DePinho, (2002); Arbeit et al., Progressive squamous epithelial neoplasia in K14-human papillomavirus type 16 transgenic mice. J. Virol. 68, 4358-4368 (1994); Hanahan, Heritable formation of pancreatic β-cell tumors in transgenic mice expressing recombinant insulin/simian virus 40 oncogenes. Nature 315, 115-122 (1985)) and xenograft tumors generated by injecting BALB/c nude mice (Harlan Sprague Dawley, Indianapolis, Ind.) with 10^6 human cancer cells orthotopically, intracardiacly or into the brain and tibia. […] Phage homing studies in vivo and cell binding studies in vitro (Zhang et al., (2006)), immunofluorescence (Karmali et al. (2008)) and flow cytometry (Sugahara et al., Hyaluronan oligosaccharides induce CD44 cleavage and promote cell migration in CD44-expressing tumor cells. J. Biol. Chem. 278, 32259-32265 (2003)) were done as described. Whole body imaging was performed 3 hrs after injecting the Cy7-labelled micelles with the Odyssey Infrared Imaging System (LI-COR Biosciences, Lincoln, Nebr.). In phage internalization assays, the cells were treated with 10^9 plaque forming units (pfu) of phage for 1 hr at 37° C., washed with an acidic buffer (glycine-HCl, pH 2.5) to remove and inactivate phage bound to the cell surface, and lysed for phage titration. Peptide internalization was studied by incubating cells with 20 μM of FAM-labelled peptide for 90 min at 37° C. […] To inhibit the binding and/or internalization of the phage, synthetic peptides or phage rendered non-infectious by UV-irradiation were added to the cells 20 min before incubation with the test phage. FAM-labelled peptides in tissues were quantified by measuring the fluorescence with Image J software. Student's t-test and one-way analysis of variance (ANOVA) followed by a suitable post hoc t-test were used for statistical analysis (Table 3).
as §4, with “Free synthetic peptides, mouse antibodies against human α1, α2, αvβ3, αvβ5, α5β1, α4, or αv integrins and integrin subunits (Chemicon), goat anti-rat neuropilin-1 (R&D Systems, Minneapolis, Minn.), with mouse and a goat IgG isotype controls (Abcam) were also tested.” left out

PPC1 cells [4] = experiment: Confocal microscopy of cells incubated with phage; format: cell-based, human
Excerpt: Phage bound to the cell surface were removed by washing the cells with a acidic buffer, and internalized phage were rescued and titrated.
The cells were stained for phage, neuropilin-1, and nuclei. The right panel is a high magnification view of the dotted area in the left panel. […] In almost all tumor ducts examined, αv integrins were positive. […] Scale bars=50 μm.
The cells were stained for phage (arrowed), neuropilin-1 (distal and flanking), and nuclei (central mass). The right panel of […] (SEQ ID NO:298) phage is a high magnification view of the dotted area in the left panel. […] Scale bars=10 μm.
Tissue sections were processed as described (Karmali et al. (2008)). Cells (2×10^5 cells) were grown on collagen I-coated coverslips (BD Biosciences, San Jose, Calif.) overnight, and incubated with 10^8 pfu/ml of T7 phage for 30 min. The cells were fixed in 4% paraformaldehyde, and stained with antibodies and DAPI (Molecular Probes, Eugene, Oreg.). The primary antibodies were rat anti-mouse CD31 monoclonal antibody (BD Biosciences), and rabbit anti-human αv integrin (Chemicon, Temecula, Calif.), rabbit anti-human neuropilin-1 (Chemicon), mouse anti-human neuropilin-1 (Miltenyi Biotec, Auburn, Calif.), and rabbit anti-T7 phage polyclonal antibodies. […]

PPC1 cells [5] = experiment: Inhibition of iRGD phage internalization into PPC1 cells; format: cell-based, human; settings: 37° C.; inhibitor added before test phage
Procedure: (§6) Phage that bound to the cell surface were titered. B, PPC1 cells were treated as described in A except that they were co-incubated with iRGD1 or CG7C phage at 37° C. The internalized phage were rescued for titering as described in the legend for FIG. 5A.
(§7) A, PPC1 cells were pre-treated with or without series of anti-integrin antibodies, or with normal mouse IgG as a control, for 30 min at 4° C., followed by incubation with iRGD1 phage or CG7C control phage for 1 hour at 4° C. (A) or 37° C. (B). Phage that bound to the cell surface (A) or those that internalized into the cells (B) were rescued and titrated.
(§8) Statistical analyses were performed with ANOVA (a, b, d) or Student's t-test (c, e).
(§9) Suspended cells (10^6 cells in DMEM containing 1% BSA) were incubated with 10^8 pfu/ml of T7 phage for 1 hr at 4° C. The cells were washed 4 times with the binding buffer, lysed with lysogeny broth containing 1% NP-40, and titrated. Phage internalization assays used the same procedure, except that the cells were incubated with phage at 37° C., and that an acidic buffer (500 mM sodium chloride, 0.1 M glycine, 1% BSA, pH 2.5) was substituted for the binding buffer in the second wash. Inhibitors of binding and internalization were added 20 min prior to incubation with phage. Non-infectious phage were prepared by treating phage with UV for 8 min in DMEM containing 1% BSA. […]

PPC1 cells [6] = experiment: Inhibition of iRGE phage internalization within PPC1 cells; format: cell-based, human; settings: non-infectious phage as inhibitor
Procedure: as §8, §4

M21 cells = experiment: CRGDK phage binding and internalization, M21 cells; format: cell-based, human
Procedure: as §8, §4

M21 human melanoma cells = experiment: iRGD phage binding to M21 cells; format: cell-based
Procedure: as §4

PPC1 cells [7] = experiment: Inhibition of iRGD phage binding to PPC1 cells; format: cell-based, human; settings: 4° C.; inhibitor added before test phage
Procedure: as §6, §7, §9

[8] = test system: pancreatic ductal adenocarcinoma (PDAC) tumors; experiment: In vivo homing of FAM-labelled peptide to PDAC tumors; set-up: species or system mice; settings: for effect of excess unlabelled peptide on accumulation of FAM-iRGD in tumors: 10-fold excess injected 30 min before FAM-iRGD
Procedure: FIGS. 3A and 3B show tumor homing of iRGD1 peptide into murine pancreatic carcinoma. A, 200 μg of […] iRGD1 peptide was injected through the tail vein into transgenic mice with pancreatic ductal adenocarcinoma (PDAC) and the peptide was allowed to circulate for 4.5 hrs. B, An excess of non-labeled iRGD1 (2 mg/mouse) was injected into the PDAC mice 30 min prior to the injection of the […] iRGD1 peptide as described in A. Shown are harvested organs observed under UV light (left) and white light (right).
Approximately 200 μg of FAM-iRGD1 was injected into mice bearing PDACs and allowed to circulate for 15 min (A), 30 min (B), 2 hrs (C) and 4.5 hrs (D). The nuclear staining with DAPI and vascular endothelial cell staining with an anti-CD31 antibody, respectively are shown. Note that at 15 (A) to 30 min (B) post-injection of FAM-iRGD1, the dye stays in the vessels (arrows) or in the cells surrounding the vessels (A, arrowheads in window at the right upper corner), but no vascular staining with the peptides is observed after 2 hrs (C, arrow) or 4.5 hrs (D, arrow). At 30 min post peptide injection, the peptide fluorescence appears in tumor glands (B, main panel and upper right corner inset); some individual cells within the tumor are strongly positive after 2 hrs (C, asterisks) and 4.5 hrs (D, asterisk).
as §5
Approximately 200 μg of […] iRGD1 peptide (FAM-iRGD1) was injected through the tail vein into immuno-deficient mice bearing xenograft of PPC1 human prostate carcinoma, MIA PaCa-2 human pancreatic carcinoma, or MDA-MB-435 human breast carcinoma and was allowed to circulate for 4.5 hrs (FIG. 2). […] Confocal microscopy of PDAC tumor sections from animals injected with FAM-iRGD1 indicated time-dependent in vivo homing dynamics for this peptide. […] The peptide fluorescence associated with the tumors cells was condensed into the perinuclear area of the tumor cells (FIGS. 4C and 4D, asterisks).

PPC1 cells [9] = experiment: Inhibition of CRGDK phage binding to PPC1 cells; format: cell-based, human
Procedure: as §8, §4

PPC1 cells [10] = experiment: Inhibition of trypsin-treated iRGD phage binding to PPC1 cells; format: cell-based, human; settings: 4° C.; non-infectious phage as inhibitor
Procedure: as §8, §4

CDCRGDCFC [RGD-4C]
effect of trypsin treatment on binding to PPC1 cells (PPC1 cells [1]): no effect
distribution within tumor (confocal microscopy) [2]: accumulated only in and around tumor blood vessels
affinity for αv integrins (αv integrins): strong affinity

CRG [CRG phage]
phage binding to cells (PPC1 cells [1]): did not
phage internalization into cells (PPC1 cells [3]): did not

CRGD [CRGD phage]
phage binding to cells (PPC1 cells [1]): did not
phage internalization into cells (PPC1 cells [3]): did not

CRGDC
effect of trypsin treatment on binding to PPC1 cells (PPC1 cells [1]): no effect
distribution within tumor (confocal microscopy) [2]: accumulated only in and around tumor blood vessels
affinity for αv integrins (αv integrins): strong affinity

CRGDGGPDC
co-localization with neuropilin-1 (confocal microscopy) (PPC1 cells [4]): did not co-localize
internalization into cells (confocal microscopy) (PPC1 cells [4]): nor did they internalize

CRGDK [CRGDK phage]
phage binding to cells (PPC1 cells [1]): bound to
internalization relative to iRGD phage (PPC1 cells [3]; 37° C.): more efficiently than iRGD phage
phage internalization into cells (PPC1 cells [3]): internalized
inhibition of iRGD phage internalization into PPC1 cells (PPC1 cells [5]): blocked
inhibition of iRGE phage internalization within PPC1 cells (PPC1 cells [6]): inhibited the internalization
binding to M21 cells with different αv integrin expression levels (M21 cells): binds similarly
phage binding to M21 cells with minimal expression of neuropilin-1 (M21 cells): did not substantially bind
phage internalization into M21 cells with minimal expression of neuropilin-1 (M21 cells; 1 hour at 37° C.): did not substantially bind to or internalize
increase of binding by forced expression of neuropilin-1 (M21 cells; M21 cells transfected with neuropilin-1 cDNA): 3.5 fold
increase of internalization by forced expression of neuropilin-1 (M21 cells; M21 cells transfected with neuropilin-1 cDNA, not shown): 3.5 fold
internalization relative to iRGD phage (M21 cells; M21 cells, 1 hour at 37° C.): reversed

CRGDKG [CRGDKG phage]
phage binding to cells (PPC1 cells [1]): bound
phage internalization into cells (PPC1 cells [3]): internalized

CRGDKGPDC [iRGD1]
binding to M21 cells that express both αvβ3 and αvβ5 (M21 human melanoma cells): bound
binding to M21 variants lacking expression of αvβ3 and αvβ5 (M21 human melanoma cells): did not
inhibition of iRGD phage binding to PPC1 cells (PPC1 cells [7]): inhibited in a dose-dependent manner
effect of excess unlabeled peptide on accumulation of FAM-iRGD1 in PDAC tumors ([8]; 2 mg/mouse 30 min prior to FAM-iRGD1): inhibited the accumulation
effect of excess unlabelled peptide on accumulation of FAM-iRGD in tumors [8]: greatly reduced

CRGDKGPEC [iRGD3]
phage binding to cells (PPC1 cells [1]): similar
phage internalization into cells (PPC1 cells [3]): similar

CRGDRGPDC [iRGD2]
phage binding to cells (PPC1 cells [1]): similar
phage internalization into cells (PPC1 cells [3]): similar

CRGEKGPDC [iRGE, reference compound]
effect of excess unlabelled peptide on accumulation of FAM-iRGD in tumors [8]: did not have the same effect

RPARPAR [RPARPAR phage]
inhibition of iRGD phage internalization into PPC1 cells (PPC1 cells [5]): blocked
inhibition of CRGDK phage binding to PPC1 cells (PPC1 cells [9]): dose-dependently inhibited
inhibition of iRGE phage internalization within PPC1 cells (PPC1 cells [6]): inhibited the internalization
inhibition of binding of trypsin-treated iRGD phage (PPC1 cells [10]): blocked
